Reference: PubChem BioAssay AID1963860 (Molecular Pharmacology Branch, DTP, NCI, 2024)
pIC50: −log10 of the molar value.

System: CN0375-F725-PDC KRAS spheroid viability
Assay: Anticancer human tumor CN0375-F725-PDC patient-derived colon carcinoma cell line growth inhibition [KRAS2]
Conditions: spheroids with HUVEC and MSC; for pIC50: curve of first compound; for viability, T/C: stronger effect = lower value
Summary of the method: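 Combination screen of spheroid viability in tumor-cell co-cultures with endothelial (HUVEC) and mesenchymal stem cell stroma. Each agent was tested in half-log dilutions, topping at clinical Cmax or at 10 microM without a known Cmax.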

[1] = second compound 0.1 µM, first compound 0.0316 µM
[2] = second compound 0.1 µM, first compound 0.1 µM
[3] = second compound 0.316 µM, first compound 0.0316 µM
[4] = second compound 0.316 µM, first compound 0.1 µM
[5] = second compound 1 µM, first compound 0.0316 µM
[6] = second compound 1 µM, first compound 0.1 µM
[7] = second compound 3.16 µM, first compound 0.0316 µM
[8] = second compound 3.16 µM, first compound 0.1 µM
[9] = second compound 10 µM, first compound 0.0316 µM
[10] = second compound 10 µM, first compound 0.1 µM
[11] = second compound 0.1 µM, first compound 0.316 µM
[12] = second compound 0.1 µM, first compound 1 µM
[13] = second compound 0.1 µM, first compound 3.16 µM
[14] = second compound 0.1 µM, first compound 10 µM
[15] = second compound 0.316 µM, first compound 0.316 µM
[16] = second compound 0.316 µM, first compound 1 µM
[17] = second compound 0.316 µM, first compound 3.16 µM
[18] = second compound 0.316 µM, first compound 10 µM
[19] = second compound 1 µM, first compound 0.316 µM
[20] = second compound 1 µM, first compound 1 µM
[21] = second compound 1 µM, first compound 3.16 µM
[22] = second compound 1 µM, first compound 10 µM
[23] = second compound 3.16 µM, first compound 0.316 µM
[24] = second compound 3.16 µM, first compound 1 µM
[25] = second compound 3.16 µM, first compound 3.16 µM
[26] = second compound 3.16 µM, first compound 10 µM
[27] = second compound 10 µM, first compound 0.316 µM
[28] = second compound 10 µM, first compound 1 µM
[29] = second compound 10 µM, first compound 3.16 µM
[30] = second compound 10 µM, first compound 10 µM
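Further: spheroids exposed to agents for 7 days.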

Structure (SMILES) | pIC50 (second compound 0.1 µM) | pIC50 (second compound 0.316 µM) | pIC50 (second compound 1 µM) | pIC50 (second compound 3.16 µM) | pIC50 (second compound 10 µM) | viability, T/C [1] [%] | viability, T/C [2] [%] | viability, T/C [3] [%] | viability, T/C [4] [%] | viability, T/C [5] [%] | viability, T/C [6] [%] | viability, T/C [7] [%] | viability, T/C [8] [%] | viability, T/C [9] [%] | viability, T/C [10] [%] | viability, T/C [11] [%] | viability, T/C [12] [%] | viability, T/C [13] [%] | viability, T/C [14] [%] | viability, T/C [15] [%] | also measured
CN(C)C/C=C/C(=O)Nc1cc2c(Nc3ccc(F)c(Cl)c3)ncnc2cc1O[C@H]1CCOC1 + CC1OCC2(CCN(c3cnc(Sc4ccnc(N)c4Cl)c(N)n3)CC2)C1N | < 7.00 | < 7.00 | < 7.00 | < 7.00 | < 7.00 | 80.4 | 80.4 | 83.2 | 75.7 | 83.5 | 77.7 | 71.6 | 72.3 | 80.6 | 82.8 |  |  |  |  |  | viability, T/C (second compound 0.1 µM, first compound 0.000316 µM): 95.9%; viability, T/C (second compound 0.1 µM, first compound 0.001 µM): 87%; viability, T/C (second compound 0.1 µM, first compound 0.00316 µM): 87.5%; viability, T/C (second compound 0.1 µM, first compound 0.01 µM): 85.9%; viability, T/C (second compound 0.316 µM, first compound 0.000316 µM): 93.6%; viability, T/C (second compound 0.316 µM, first compound 0.001 µM): 87.7%; viability, T/C (second compound 0.316 µM, first compound 0.00316 µM): 84%; viability, T/C (second compound 0.316 µM, first compound 0.01 µM): 86.9%; viability, T/C (second compound 1 µM, first compound 0.000316 µM): 94.8%; viability, T/C (second compound 1 µM, first compound 0.001 µM): 97.5%; viability, T/C (second compound 1 µM, first compound 0.00316 µM): 88.3%; viability, T/C (second compound 1 µM, first compound 0.01 µM): 85.5%; viability, T/C (second compound 3.16 µM, first compound 0.000316 µM): 73.9%; viability, T/C (second compound 3.16 µM, first compound 0.001 µM): 77.7%; viability, T/C (second compound 3.16 µM, first compound 0.00316 µM): 73.7%; viability, T/C (second compound 3.16 µM, first compound 0.01 µM): 71%; viability, T/C (second compound 10 µM, first compound 0.000316 µM): 90.3%; viability, T/C (second compound 10 µM, first compound 0.001 µM): 96%; viability, T/C (second compound 10 µM, first compound 0.00316 µM): 88%; viability, T/C (second compound 10 µM, first compound 0.01 µM): 84.6%
COC(=O)c1ccc2c(C(=Nc3ccc(N(C)C(=O)CN4CCN(C)CC4)cc3)c3ccccc3)c(O)[nH]c2c1 + CC1OCC2(CCN(c3cnc(Sc4ccnc(N)c4Cl)c(N)n3)CC2)C1N | 5.63 | 5.66 | 5.65 | 5.70 | 5.90 | 104 | 103 | 102 | 91 | 79.2 | 84.6 | 76 | 82.4 | 66 | 73.2 | 89.3 | 85.9 | 37.4 | 0.19 | 84.8 | viability, T/C [16]: 81.3%; viability, T/C [17]: 35.4%; viability, T/C [18]: 0.2%; viability, T/C [19]: 93.5%; viability, T/C [20]: 75.3%; viability, T/C [21]: 38.8%; viability, T/C [22]: 0.16%; viability, T/C [23]: 83.2%; viability, T/C [24]: 69.2%; viability, T/C [25]: 36.9%; viability, T/C [26]: 0.37%; viability, T/C [27]: 68.5%; viability, T/C [28]: 60.3%; viability, T/C [29]: 11.7%; viability, T/C [30]: 1.38%
O=C(c1cc(Cc2n[nH]c(=O)c3ccccc23)ccc1F)N1CCN(C(=O)C2CC2)CC1 + CC1OCC2(CCN(c3cnc(Sc4ccnc(N)c4Cl)c(N)n3)CC2)C1N | < 5.00 | < 5.00 | < 5.00 | < 5.00 | < 5.00 | 97.7 | 98.4 | 100 | 93.9 | 107 | 98.3 | 83.4 | 82.2 | 79.9 | 83.6 | 91.3 | 100 | 97.8 | 90 | 90.3 | viability, T/C [16]: 89.6%; viability, T/C [17]: 93%; viability, T/C [18]: 86.4%; viability, T/C [19]: 93.6%; viability, T/C [20]: 92.6%; viability, T/C [21]: 97.6%; viability, T/C [22]: 93.9%; viability, T/C [23]: 82.5%; viability, T/C [24]: 80.7%; viability, T/C [25]: 80.7%; viability, T/C [26]: 76.4%; viability, T/C [27]: 106%; viability, T/C [28]: 77%; viability, T/C [29]: 71.4%; viability, T/C [30]: 71.1%
